This is an account of results in ChEMBL document CHEMBL1126767, “Three-dimensional quantitative structure-activity relationship of angiotesin-converting enzyme and thermolysin inhibitors. II. A comparison of CoMFA models incorporating molecular orbital fields and desolvation free energies based on active-analog and complementary-receptor-field alignment rules” (J Med Chem, 1993).

SMILES strings stand for the structures. Square brackets hold non-standard residues; d marks the D form. Peptide text beside a SMILES is read from it. Mpa = O=C(O)CCS

The target of the test is Angiotensin-converting enzyme (Homo sapiens, UniProt P12821). The test can be described thus: Inhibitory activity against angiotensin converting enzyme (ACE). In kind it is functional.
Usually IC50 stands for the point on the concentration scale where inhibition reaches its midpoint. A higher IC50 goes with weaker potency in that assay. `C[C@H](NP(=O)(O)O)C(=O)N1CCC[C@H]1C(=O)O` had an IC50 of 0.776 µM. That is a sub-micromolar value.
The molecule `CCN(C[C@H](CCc1ccccc1)C(=O)O)C(=O)N1Cc2ccccc2C[C@H]1C(=O)O` had an IC50 of 0.00646 µM.
`O=C(CS)N[C@@H](Cc1c[nH]cn1)C(=O)O` showed an IC50 of 257 µM.
In turn, `O=C(O)C(CCc1ccccc1)N[C@H]1CCN2CCC[C@@H](C(=O)O)N2C1=O` (stereo partly drawn) had an IC50 of 0.0562 µM.
Molecule `O=C(N[C@H](CCC(=O)N1[C@H](C(=O)O)C[C@@H]2CCCC[C@@H]21)C(=O)O)C1CCCN1C(=O)OCc1ccccc1` (stereo partly drawn) showed an IC50 of 0.0151 µM.
The molecule `CC(C)(S)C(=O)N[C@@H](CS)C(=O)O` [BUCILLAMINE] gave an IC50 of 7240 µM.
The molecule `C[C@H](CC(CCc1ccccc1)C(=O)O)C(=O)N1c2ccccc2C[C@H]1C(=O)O` (stereo partly drawn) had an IC50 of 0.00479 µM.
In the case of `C[C@H](NC(=O)CCS)C(=O)O`, 0.851 µM corresponded to half-maximal inhibition (IC50). Compared with the last molecule, the IC50 is about 180-fold higher.
`O=C(O)[C@@H]1CCCN1C(=O)CCS` (stereo in doubt; 34) showed an IC50 of 0.2 µM.
Take `CC(C)[C@H](NC(=O)CCS)C(=O)O`: the IC50 was 1.58 µM. This IC50 is about 7.9-fold higher than that of the molecule before.
`C[C@H](NC(CCc1ccc(O)cc1)C(=O)O)C(=O)N1CCC[C@H]1C(=O)O` (stereo partly drawn) showed a 50% inhibitory concentration (IC50) of 0.00282 µM.
With `O=C(O)CCC(=O)NCC(=O)O`, half-maximal inhibition (IC50) was put at 2000 µM.
In turn, `CC(C)[C@H](N)C(=O)N1CCC[C@H]1C(=O)O` (H-Val-Pro-OH) had a half-maximal inhibitory concentration (IC50) of 417 µM.
Under `O=C(O)CCC(=O)N[C@@H](Cc1ccccc1)C(=O)O` stands 550 µM.
For `O=C(O)[C@@H]1CCCN1C(=O)CCS` (stereo in doubt; 56), the IC50 was 17 µM.
Molecule `CC(C)(S)C(=O)N[C@@H](Cc1c[nH]c2ccccc12)C(=O)O` gave an IC50 of 38 µM. Compared with the last molecule, the IC50 is about 2.2-fold higher.
Under `O=C(O)CCNC(=O)CCS` stands 490 µM; under `O=C(NC(Cc1ccccc1)CP(=O)(O)CC(=O)N1CCC[C@H]1C(=O)O)c1ccccc1` (stereo partly drawn), 0.01 µM.
Under `O=C(CCS)N[C@@H](CS)C(=O)O` stands 67.6 µM; under `O=C(O)[C@H]1CCCN1C(=O)CCS`, 1820 µM; under `C[C@H](NC(CCc1ccccc1)C(=O)O)C(=O)N1CC2CCCCC2[C@H]1C(=O)O` (stereo partly drawn), 0.00219 µM.
As to `C[C@H](NC(CCCNC(=O)OCc1ccccc1)C(=O)O)C(=O)N1CCC[C@H]1C(=O)O` (stereo partly drawn), the IC50 was 0.00288 µM.
Under `O=C(O)C[C@H](NC(=O)CS)C(=O)O` stands 77.6 µM; under `Cc1ccc(N(CC(=O)O)C(=O)C(C)N)cc1` (stereo not drawn), 2.57 µM.
On to `C[C@@H](N)C(=O)N[C@@H](Cc1ccccc1)C(=O)O` (stereo in doubt; 52), for which half-maximal inhibition (IC50) required 191 µM.
Under `O=C(NC(CCc1ccccc1)P(=O)(O)CC(=O)N1CCC[C@H]1C(=O)O)c1ccccc1` (stereo partly drawn) stands 0.0724 µM; under `O=C(O)CCC(=O)N1CCC[C@H]1C(=O)O`, 33.1 µM.
`NCCCC[C@H](OP(=O)(O)CCCCc1ccccc1)C(=O)N1CCC[C@H]1C(=O)O` [CERONAPRIL] had an IC50 of 0.0363 µM.
Regarding `O=C(CCS)N[C@@H](Cc1ccccc1)C(=O)O`, the IC50 is 0.427 µM.
Regarding `CC(S)C(=O)N[C@@H](Cc1c[nH]c2ccccc12)C(=O)O` (stereo in doubt; form 2), the IC50 is 0.0646 µM. Compared with the last molecule, the IC50 is about 6.6-fold lower.
With `CC(CS)C(=O)N[C@@H](Cc1c[nH]c2ccccc12)C(=O)O` (stereo in doubt), half-maximal inhibition (IC50) required 33.1 µM. This IC50 lies about 510-fold higher than the previous one.
As for `O=C(CS)N[C@@H](CS)C(=O)O`, 19.1 µM corresponded to half-maximal inhibition (IC50).
Under `C[C@@H](NC(=O)C(S)Cc1ccccc1)C(=O)N1CCC[C@H]1C(=O)O` (stereo partly drawn) stands 0.0501 µM; under `O=C(O)[C@@H]1CCCN2C(=O)C[C@@H](CS)C(=O)N12`, 0.0708 µM.
Molecule `N[C@@H](Cc1ccccc1)C(=O)N[C@H](CCC(=O)N1[C@H](C(=O)O)C[C@@H]2CCCC[C@@H]21)C(=O)O` had an IC50 of 0.219 µM.
For `O=C(O)[C@@H]1CCCN1C(=O)CP(=O)(O)O`, 8.32 µM corresponded to half-maximal inhibition (IC50).
As to `NCCCC[C@H](OP(=O)(O)CCCCc1ccccc1)C(=O)N1CC2(C[C@H]1C(=O)O)SCCS2`, 0.000631 µM corresponded to half-maximal inhibition (IC50).
In turn, `NCCCC[C@H](OP(=O)(O)CCCCc1ccccc1)C(=O)N(CC(=O)O)c1ccccc1` gave an IC50 of 0.00107 µM.
With `C[C@H](CC(=O)O)C(=O)N1CCC[C@H]1C(=O)O`, 10.2 µM corresponded to half-maximal inhibition (IC50).
Regarding `C[C@H](NC(CCC(=O)Nc1ccc(I)cc1)C(=O)O)C(=O)N1CCC[C@H]1C(=O)O` (stereo partly drawn), it took 0.000229 µM to reach half-maximal inhibition (IC50).
Take `CC(CS)C(=O)N[C@@H](Cc1c[nH]c2ccccc12)C(=O)O` (stereo in doubt; 30A): the IC50 is 0.0347 µM. Compared with the last molecule, the IC50 is about 150-fold higher.
As to `O=C(N[C@H](CCC(=O)N1CCC[C@H]1C(=O)O)C(=O)O)C1CCCN1C(=O)OCc1ccccc1` (stereo partly drawn), the IC50 was 2.51 µM.
The molecule `C[C@H](NC(CCc1ccccc1)P(=O)(O)O)C(=O)N1CCC[C@H]1C(=O)O` (stereo partly drawn) showed an IC50 of 0.0513 µM.
Next, `C[C@H](NP(=O)(O)CCc1ccccc1)C(=O)N1CCC[C@H]1C(=O)O`: 0.00708 µM; `C[C@@]1(CCS)C(=O)N2CC=C[C@@H](C(=O)O)N2C1=O`: 0.1 µM; `C[C@H](NC(CCC(=O)Nc1ccccc1)C(=O)O)C(=O)N1CCC[C@H]1C(=O)O` (stereo partly drawn): 0.00525 µM.
Under `O=C(CCS)N[C@@H](Cc1cnc[nH]1)C(=O)O` stands 229 µM.
The molecule `O=C(O)[C@@H]1CCC(=O)N1CCCS` had an IC50 of 646 µM.
Regarding `CN(CC(=O)O)C(=O)CCS`, the IC50 is 3.02 µM.
Regarding `O=C(O)CCc1cc(O)c2n(c1=O)[C@H](C(=O)O)CC2`, the IC50 was 0.457 µM. Compared with the last molecule, the IC50 is about 6.6-fold lower.
With `COc1ccc(N(CC(=O)O)C(=O)[C@H](CCCCN)OP(=O)(O)CCCCc2ccccc2)cc1OC`, the IC50 is 0.000288 µM.
As for `C[C@H](CCC(=O)O)C(=O)N1CCC[C@H]1C(=O)O`, the IC50 is 4.9 µM.
The molecule `C[C@H](NC(CCN)C(=O)O)C(=O)N1CCC[C@H]1C(=O)O` (stereo partly drawn) gave an IC50 of 0.324 µM.
Regarding `O=C(O)[C@@H]1C=CCn2c(=O)n(CS)c(=O)n21`, the IC50 was 0.708 µM. Against the preceding molecule, the IC50 is about 2.2-fold higher.
With `CC(C)(C)OC(=O)[C@@H]1CCCN1C(=O)CCS`, the IC50 is 38.9 µM.
`O=C(CCS)N[C@@H](Cc1c[nH]c2ccccc12)C(=O)O` (stereo in doubt; form 1) gave an IC50 of more than 1000 µM.
As for `CCC(C)[C@H](NC(=O)CCC(=O)O)C(=O)O` (stereo partly drawn), the midpoint of inhibition, the IC50, lay at 1050 µM.
In turn, `NC(Cc1ccccc1)C(=O)N[C@H](CCC(=O)N1[C@H](C(=O)O)C[C@@H]2CCCC[C@@H]21)C(=O)O` (stereo partly drawn) gave an IC50 of 0.1 µM.
`O=C(O)[C@@H]1C=CCN1C(=O)CCS`: inhibition was half-maximal at 0.646 µM (IC50).
Molecule `NCCC[C@H](NC(CCc1ccccc1)C(=O)O)C(=O)N1CCC[C@H]1C(=O)O` (stereo partly drawn) gave an IC50 of 0.00219 µM.
In the case of `NCC(=O)N[C@@H](Cc1ccccc1)C(=O)O` (H-Gly-Phe-OH), the IC50 is 603 µM.
Under `CN(C(=O)CCS)[C@@H](Cc1ccccc1)C(=O)O` stands 30.9 µM; under `C[C@H](NP(=O)(O)OCc1ccccc1)C(=O)N1CCC[C@H]1C(=O)O`, 0.0407 µM.
`NCC(=O)N1CCC[C@H]1C(=O)O` [GLYCYL PROLINE] (H-Gly-Pro-OH) gave a concentration for half-maximal inhibition (IC50) of 447 µM.
Next, `CC(S)C(=O)N[C@@H](CS)C(=O)O` (stereo in doubt; form 2): 7.94 µM; `C[C@H](NC(CCc1ccccc1)C(N)=O)C(=O)N1CCC[C@H]1C(=O)O` (stereo partly drawn): 25.7 µM.
Regarding `NCCCC[C@H](OP(=O)(O)CCCCc1ccccc1)C(=O)N1C[C@H](Sc2ccccc2)C[C@H]1C(=O)O`, the IC50 was 0.000776 µM. Compared with the last molecule, the IC50 is about 33000-fold lower.
`NCCCC[C@H](OP(=O)(O)CCCCc1ccccc1)C(=O)N1C[C@@H](C2CCCCC2)C[C@H]1C(=O)O`: inhibition was half-maximal at 0.00049 µM (IC50).
As to `O=C(O)CN1C(=O)C(NC(CCc2ccccc2)C(=O)O)CCc2ccccc21` (stereo not drawn), the half-inhibitory concentration (IC50) is 0.0017 µM.
On to `O=C(O)[C@@H]1CC2(CN1C(=O)CP(=O)(O)CCCCc1ccccc1)SCCS2`, for which the IC50 was 0.00398 µM.
For the molecule `CS[C@H]1C[C@@H](C(=O)O)N(C(=O)[C@H](CCCCN)OP(=O)(O)CCCCc2ccccc2)C1`, the IC50 is 0.00191 µM. Compared with the last molecule, the IC50 is about 2.1-fold lower.
The molecule `C[C@H](NCC(=O)O)C(=O)N1CCC[C@H]1C(=O)O` showed an IC50 of 2.4 µM. This IC50 lies about 1300-fold higher than the previous one.
Next, `COP(=O)(O)C(CCc1ccccc1)N[C@@H](C)C(=O)N1CCC[C@H]1C(=O)O` (stereo partly drawn): 0.437 µM.
`O=C(O)[C@@H]1CCCN1C(=O)C1CCCC1S` (stereo partly drawn) gave an IC50 of 0.0646 µM.
As to `O=C(O)[C@@H]1CCCN1C(=O)CCP(=O)(O)O`, the IC50 was 47.9 µM.
With `O=C(O)[C@@H]1CCCN1C(=O)C1CCC1S` (stereo partly drawn), the half-maximal inhibitory concentration (IC50) was 0.049 µM.
`CC(S)C(=O)N[C@@H](CS)C(=O)O` (stereo in doubt; form 1) gave an IC50 of 537 µM.
Next, `NCCCCC(N)C(=O)N[C@H](CCC(=O)N1[C@H](C(=O)O)C[C@@H]2CCCC[C@@H]21)C(=O)O` (stereo partly drawn): 0.012 µM; `NCCCC[C@H](OP(=O)(O)CCCCc1ccccc1)C(=O)N1C[C@@H](Cc2ccccc2)C[C@H]1C(=O)O`: 0.000891 µM.
`NCCCC[C@H](OP(=O)(O)CCCCc1ccccc1)C(=O)N1C[C@@H](Sc2ccccc2)C[C@H]1C(=O)O`: the IC50 was 0.000525 µM.
Under `CC(C(=O)O)C1CCCCC(CS)C1=O` (stereo not drawn) stands 0.0525 µM; under `NCCCCC(NC(=O)OCc1ccccc1)C(=O)N[C@H](CCC(=O)N1c2ccccc2C[C@H]1C(=O)O)C(=O)O` (stereo partly drawn), 2.51 µM.
Regarding `C[C@H](NCCCc1ccccc1)C(=O)N1CCC[C@H]1C(=O)O`, the IC50 was 5.75 µM.
Consider `CC(C)[C@H](NC(=O)CCC(=O)O)C(=O)O`, for which the IC50 was 1100 µM. Against the preceding molecule, the IC50 is about 190-fold higher.
In turn, `CC(C)(S)C(=O)N[C@@H](CC(=O)O)C(=O)O` had an IC50 of 3470 µM. This IC50 lies about 3.2-fold higher than the previous one.
Under `O=C(CCS)N[C@@H](Cc1c[nH]c2ccccc12)C(=O)O` (stereo in doubt; form 2) stands 4.57 µM; under `C[C@H](NC(=O)CCS)C(=O)N1CCC[C@H]1C(=O)O` ([Mpa]-Ala-Pro-OH), 2.57 µM.
As for `O=C(CCS)OC(Cc1ccccc1)C(=O)O` (stereo not drawn), half-maximal inhibition (IC50) required 0.708 µM.
For `CC(S)C(=O)N[C@@H](Cc1c[nH]c2ccccc12)C(=O)O` (stereo in doubt; form 1), the IC50 was 0.363 µM.
`C[C@@H](N)C(=O)N[C@@H](Cc1ccccc1)C(=O)O` (stereo in doubt; 53) gave an IC50 of 52.5 µM.
`C[C@H](NC(CCc1ccccc1)C(=O)O)C(=O)N(CC(=O)O)C1Cc2ccccc2C1` (stereo partly drawn) gave an IC50 of 0.0398 µM.
`CC(C)C[C@H](NC(=O)CCC(=O)O)C(=O)O` gave an IC50 of 617 µM.
On to `NCCCC[C@H](OP(=O)(O)CCCCc1ccccc1)C(=O)N1C[C@@H](O)C[C@H]1C(=O)O`, for which the IC50 is 0.0158 µM.
